From patent US8012944B2, “Method for treating cancer using IAP antisense oligomer and chemotherapeutic agent” (Pharmascience Inc., priority 2003, dated 2011)
Oligonucleotides are written 5' to 3', each unit as a sugar letter and its base; * is a phosphorothioate linkage, no mark a phosphodiester; rarer units and linkages stand in square brackets, end groups in braces. Plain capitals give the bases only. d = 2'-deoxy (DNA); m = 2'-O-methyl

Experiments:
Type in all cases: cell-based, human
XIAP RNA = XIAP RNA knock-down in T24 cells (TaqMan quantitative PCR)
Text: (§1) We used TaqMan quantitative PCR (described below) to assay for changes in mRNA levels after oligonucleotide treatment. We employed ELISA for determining XIAP protein levels and western blotting for determining HIAP1 protein levels. Transfection conditions were optimized with Lipofectamine plus or Lipofectamine 2000 (Life Technologies, Canada) on T24 bladder carcinoma cells or H460 non-small cell lung carcinoma cells, or lipofectin on SF-295 glioblastoma cells, using a fluorescein-tagged sense oligonucleotide (5′-mGmAGAAGATGACTGGTAAmCmA-3′; SEQ ID NO: 261) from XIAP spanning the start codon as a control. The results were visualized and gauged by epi-fluorescence microscopy. In the case of T24 cells, transfections were further optimized based on the ability of a published oligonucleotide to downregulate survivin expression (Li et al., Nat. Cell Biol. 1:461-466, 1999) (5′-U/TGTGCTATTCTGTGAAU/TU/T-3′ SEQ ID NO: 262). We optimized the transfection conditions based on the TaqMan results of survivin RNA knock-down detected with PCR primers and fluorescent probe, described in detail below. […] We then applied these conditions to screen for XIAP protein knock-down using the oligo library against T24 cells.
RNA was extracted from cells lysed in RLT buffer (QIAGEN, Valencia, Calif.), and purified using QIAGEN RNeasy columns/kits. Real-time quantitative PCR was performed on a Perkin-Elmer ABI 7700 Prism PCR machine. RNA was reverse transcribed and amplified according to the TaqMan Universal PCR Master Mix protocol of PE Biosystems, using primers and probes designed to specifically recognize XIAP, HIAP1, survivin, or GAPDH. For human survivin, the forward primer was 5′-[…]-3′ (SEQ ID NO: 263), the reverse primer was 5′-GAAAGGAAAGCGCAACCG-3′ (SEQ ID NO: 264), and the probe was 5′-(FAM)[…](TAMRA)-3′ (SEQ ID NO: 265). For human HIAP1, the forward primer was 5′-[…]-3′ (SEQ ID NO: 266), the reverse primer was 5′-[…]-3′ (SEQ ID NO: 267), and the probe was 5′-(FAM)[…](TAMRA)-3′ (SEQ ID NO: 268). For human XIAP, the forward primer was 5′-[…]-3′ (SEQ ID NO: 269), the reverse primer was 5′-[…]-3′ (SEQ ID NO: 270), and the probe was 5′-(FAM)[…](TAMRA)-3′ (SEQ ID NO: 271). For human GAPDH, the forward primer was 5′-GAAGGTGAAGGTCGGAGTC-3′ (SEQ ID NO: 272), the reverse primer was 5′-GAAGATGGTGATGGGATTC-3′ (SEQ ID NO: 273), and the probe was 5′-(JOE)[…](TAMRA)-3′ (SEQ ID NO: 274). FAM is 6-carboxyfluoroscein, JOE is 6-carboxy-4,5-dichloro-2,7-dimethoxyfluoroscein, and TAMRA is 6-carboxy-N,N,N′,N′-tetramethylrhodamine. FAM and JOE are 5′ reporter dyes, while TAMRA is a 3′ quencher dye.
Relative quantification of gene expression was performed as described in the PE Biosystems manual using GAPDH as an internal standard. The comparative Ct (cycle threshold) method was used for relative quantitation of IAP mRNA levels compared to GAPDH mRNA levels. Briefly, real-time fluorescence measurements were taken at each PCR cycle and the threshold cycle (Ct) value for each sample was calculated by determining the point at which fluorescence exceeded a threshold limit of 30 times the baseline standard deviation. The average baseline value and the baseline SD are calculated starting from the third cycle baseline value and stopping at the baseline value three cycles before the signal starts to exponentially rise. The PCR primers and/or probes for the specific IAPs were designed to span at least one exon-intron boundary separated by 1 kb or more of genomic DNA, to reduce the possibility of amplifying and detecting genomic DNA contamination. The specificity of the signal, and possible contamination from DNA, were verified by treating some RNA samples with either DNase or RNase, prior to performing the reverse transcription and PCR reaction steps.
The XIAP synthetic library of 96 antisense oligonucleotides was first screened for decreases in XIAP protein levels. […]

XIAP protein = XIAP protein knock-down in T24 cells (XIAP ELISA, relative to total protein); details: for XIAP protein levels relative to total protein, compared to mock transfection (in words): first screen of the library
Text: as §1
A standard colorimetric XIAP ELISA assay was performed using an affinity-purified rabbit polyclonal antibody to XIAP as a capture antibody, and was detected with a XIAP monoclonal antibody (MBL, Japan) and a biotinylated anti-mouse Ig antibody and horseradish peroxidase-conjugated streptavidin and TMB substrate. Alternatively, a polyclonal XIAP or HIAP1 antibody may be used to measure XIAP or HIAP1 protein levels, respectively.
The XIAP synthetic library of 96 antisense oligonucleotides was first screened for decreases in XIAP protein levels. Specifically, T24 cells (1.5×10^4 cells/well) were seeded in wells of a 96-well plate on day 1, and were cultured in antibiotic-free McCoy's medium for 24 hours. On day 2, the cells were transfected with XIAP antisense oligonucleotides as described above (oligonucleotides are labeled according to their plated position, i.e., A1 to H12, and include two repeats, A13 and B13 that contain lyophilized DNA pellets that stuck to the sealing membrane). Briefly, the nucleobase oligomers were diluted in 10 μl/well of serum-free, antibiotic-free McCoy's medium and then PLUS reagent was added. Lipofectamine was diluted in 10 μl/well of serum-free, antibiotic-free McCoy's medium, and both mixes were incubated for 15 minutes at room temperature. The mixes were then combined and incubated for 15 minutes at room temperature.
In the meantime, the complete medium was removed from the cells and 50 μl/well of serum-free, antibiotic-free medium was added to the cells. The transfection mixes were added to the well, and the cells were incubated for three hours. Then 30 μl/well of serum-free, antibiotic-free medium and 100 μl/well of antibiotic-free complete medium, containing 20% fetal bovine serum were added to each well.
At day 3, XIAP RNA levels were measured using quantitative real-time PCR techniques, as described above. At day 4, XIAP protein levels were measured by ELISA (FIGS. 1A, 1C, 1E, 1G, 1I, and 1K), and total cellular protein was measured biochemically (FIGS. 1B, 1D, 1F, 1H, 1J, and 1L; used to normalize the XIAP protein levels). The results were compared to a mock transfection sample (treated with the transfection agent but no oligonucleotide DNA was added, and then processed as for the other samples). Time course experiments determined that the optimal time for protein knock-down to be around 12 to 24 hours. […]

XIAP mRNA [1] = test: XIAP mRNA knock-down in H460 cells (real-time RT-PCR / TaqMan)
Procedure, shortened: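 NCI-H460 cells transfected with phosphorothioate antisense oligonucleotides via Lipofectamine 2000; RNA isolated after 6 h treatment. XIAP mRNA quantified by one-step TaqMan real-time RT-PCR, comparative Ct (threshold 30× baseline SD), normalized to GAPDH and expressed relative to untreated control cells.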

XIAP mRNA [2] = test: as above; details: 2 × 2 MBO; NCI-H460 cells, 9 hours post-transfection; relative level (mock control 1.01)

Sequence	XIAP down-regulation T24 RNA (XIAP RNA)	XIAP down-regulation T24 protein (XIAP protein)	XIAP protein levels relative to total protein, compared to mock transfection (in words) (XIAP protein)	XIAP down-regulation H460 RNA (XIAP mRNA [1])	XIAP RNA (XIAP mRNA [2])
GCTGAGTCTCCATATTGCC [G4] (chemistry not fully specified) [Code G4]	34%	48%	some decrease	51%	
GAAAGTAATATTTAAGCAG (antisense; chemistry not fully specified) [Code E2]	54%	51%	some decrease	60%	
CTTGTCCACCTTTTCTAAA (antisense; sugars from the 5' end m2 d15 m2, backbone and T or U not given here; further chemistry not fully specified) [Code E3]	53%	64%	some decrease	55%	0.48
GTATAAAGAAACCCTGCTC (antisense; sugars from the 5' end m2 d15 m2, backbone and T or U not given here; further chemistry not fully specified) [Code D4]	12%	43%	some decrease	51%	0.48
AGTTTTCAACTTTGTACTG (antisense; sugars from the 5' end m2 d15 m2, backbone and T or U not given here; further chemistry not fully specified) [Code D5]	39%	33%	some decrease		
GTTGTTCCCAAGGGTCTTC (antisense; sugars from the 5' end m2 d15 m2, backbone, methylation of C and T or U not given here; further chemistry not fully specified) [Code E8]	72%	56%		44%	
TGCCAGTGTTGATGCTGAA (antisense; chemistry not fully specified) [Code C4]	28%	56%	some decrease	77%	0.22
GTGTAGTAGAGTCCAGCAC (antisense; sugars from the 5' end m2 d15 m2, backbone, methylation of C and T or U not given here; further chemistry not fully specified) [Code F6]	34%	39%	some decrease		
CAGGGTTCCTCGGGTATAT (antisense; sugars from the 5' end m2 d15 m2, backbone and T or U not given here; further chemistry not fully specified) [Code B6]	51%	47%	some decrease		
AATATGTAAACTGTGATGC (mA*mAdTdAdTdGdTdAdAdAdCdTdGdTdGdAdTmG*mC; antisense) [Code C2]	36%	45%	some decrease	70%	0.33
GAAAGGACTTTACTTTATC (antisense; sugars from the 5' end m2 d15 m2, backbone, methylation of C and T or U not given here; further chemistry not fully specified) [Code D8]	38%	26%	some decrease	49%	0.55
ACCATTCTGGATACCAGAA (mA*mCdCdAdTdTdCdTdGdGdAdTdAdCdCdAdGmA*mA) [Code C5]	71%	54%	some decrease		
